Assay results taken from patent publication US11459323B2, “Monocyclic β-lactam compound for treating bacterial infection” (MEDSHINE DISCOVERY INC., priority 2018, dated 2022).
In brackets after ≈: the same amount, converted by molar mass.

Assays:
Experiment in all cases: MIC on clinically isolated bacteria
Assay type in all cases: cell-based
[1] = system: Pseudomonas aeruginosa W21; details: read-out: MIC
Excerpt: (§1) Twenty-five strains of clinically isolated Acinetobacter baumannii and twenty-seven strains of Pseudomonas aeruginosa were respectively selected and used to determine the minimum inhibitory concentration (MIC) of the compounds by micro-liquid dilution method according to the Institute of Clinical and Laboratory Standard (CLSI) requirements.

[2] = system: Pseudomonas aeruginosa W42; details: read-out: MIC
Excerpt: as §1

[3] = system: Acinetobacter baumannii C361; details: Acinetobacter baumannii C361; read-out: Minimum Inhibitory Concentration (MIC)
Excerpt: as §1

[4] = system: Pseudomonas aeruginosa W24; details: read-out: MIC
Excerpt: as §1

[5] = system: Pseudomonas aeruginosa W28; details: read-out: MIC
Excerpt: as §1

[6] = system: Acinetobacter baumannii C403; details: Acinetobacter baumannii C403; read-out: Minimum Inhibitory Concentration (MIC)
Excerpt: as §1

[7] = system: Acinetobacter baumannii C313; details: Acinetobacter baumannii C313; read-out: Minimum Inhibitory Concentration (MIC)
Excerpt: as §1

[8] = system: Pseudomonas aeruginosa W13; details: read-out: MIC
Excerpt: as §1

[9] = system: Pseudomonas aeruginosa M4; details: read-out: MIC
Excerpt: as §1

[10] = system: Pseudomonas aeruginosa W1; details: read-out: MIC
Excerpt: as §1

[11] = system: Acinetobacter baumannii C319; details: Acinetobacter baumannii C319; read-out: Minimum Inhibitory Concentration (MIC)
Excerpt: as §1

[12] = system: Acinetobacter baumannii C328; details: Acinetobacter baumannii C328; read-out: Minimum Inhibitory Concentration (MIC)
Excerpt: as §1

[13] = system: Acinetobacter baumannii C333; details: Acinetobacter baumannii C333; read-out: Minimum Inhibitory Concentration (MIC)
Excerpt: as §1

[14] = system: Acinetobacter baumannii C270; details: Acinetobacter baumannii C270; read-out: Minimum Inhibitory Concentration (MIC)
Excerpt: as §1

[15] = system: Pseudomonas aeruginosa W47; details: read-out: MIC
Excerpt: as §1

[16] = system: Acinetobacter baumannii C427; details: Acinetobacter baumannii C427; read-out: Minimum Inhibitory Concentration (MIC)
Excerpt: as §1

[17] = system: Acinetobacter baumannii C390; details: Acinetobacter baumannii C390; read-out: Minimum Inhibitory Concentration (MIC)
Excerpt: as §1

[18] = system: Acinetobacter baumannii C251; details: Acinetobacter baumannii C251; read-out: Minimum Inhibitory Concentration (MIC)
Excerpt: as §1

[19] = system: Acinetobacter baumannii C312; details: Acinetobacter baumannii C312; read-out: Minimum Inhibitory Concentration (MIC)
Excerpt: as §1

[20] = system: Pseudomonas aeruginosa C754; details: read-out: MIC
Excerpt: as §1

[21] = system: Pseudomonas aeruginosa W27; details: read-out: MIC
Excerpt: as §1

[22] = system: Pseudomonas aeruginosa C761; details: read-out: MIC
Excerpt: as §1

[23] = system: Acinetobacter baumannii C395; details: Acinetobacter baumannii C395; read-out: Minimum Inhibitory Concentration (MIC)
Excerpt: as §1

[24] = system: Acinetobacter baumannii C401; details: Acinetobacter baumannii C401; read-out: Minimum Inhibitory Concentration (MIC)
Excerpt: as §1

[25] = system: Acinetobacter baumannii C394; details: Acinetobacter baumannii C394; read-out: Minimum Inhibitory Concentration (MIC)
Excerpt: as §1

[26] = system: Acinetobacter baumannii C315; details: Acinetobacter baumannii C315; read-out: Minimum Inhibitory Concentration (MIC)
Excerpt: as §1

[27] = system: Pseudomonas aeruginosa W29; details: read-out: MIC
Excerpt: as §1

[28] = system: Acinetobacter baumannii C408; details: Acinetobacter baumannii C408; read-out: Minimum Inhibitory Concentration (MIC)
Excerpt: as §1

[29] = system: Pseudomonas aeruginosa C755; details: read-out: MIC
Excerpt: as §1

[30] = system: Pseudomonas aeruginosa W19; details: read-out: MIC
Excerpt: as §1

[31] = system: Pseudomonas aeruginosa W9; details: read-out: MIC
Excerpt: as §1

[32] = system: Pseudomonas aeruginosa W4; details: read-out: MIC
Excerpt: as §1

Aeruginosa ATCC27853 = details: Pseudomonas aeruginosa; Aeruginosa ATCC27853; read-out: MIC
Excerpt: as §1

[33] = system: Acinetobacter baumannii C332; details: Acinetobacter baumannii C332; read-out: Minimum Inhibitory Concentration (MIC)
Excerpt: as §1

[34] = system: Acinetobacter baumannii C357; details: Acinetobacter baumannii C357; read-out: Minimum Inhibitory Concentration (MIC)
Excerpt: as §1

[35] = system: Pseudomonas aeruginosa W46; details: read-out: MIC
Excerpt: as §1

[36] = system: Acinetobacter baumannii C402; details: Acinetobacter baumannii C402; read-out: Minimum Inhibitory Concentration (MIC)
Excerpt: as §1

[37] = system: Pseudomonas aeruginosa C763; details: read-out: MIC
Excerpt: as §1

[38] = system: Pseudomonas aeruginosa W32; details: read-out: MIC
Excerpt: as §1

[39] = system: Pseudomonas aeruginosa W20; details: read-out: MIC
Excerpt: as §1

[40] = system: Pseudomonas aeruginosa C745; details: read-out: MIC
Excerpt: as §1

CC1(C)[C@H](NC(=O)/C(=N\O[C@@H](COc2ccc3c(c2)CN(C(=N)NCCCCN)C3)C(=O)O)c2csc(N)n2)C(=O)N1OS(=O)(=O)O [Compound 36] gave an MIC [1] of 0.25 µg/mL (≈ 0.358 µM), an MIC [2] of 0.25 µg/mL (≈ 0.358 µM) and an MIC [3] of 2 µg/mL (≈ 2.87 µM). The MIC [4] was 0.5 µg/mL (≈ 0.717 µM), the MIC [5] was 4 µg/mL (≈ 5.73 µM) and the MIC [6] was 2 µg/mL (≈ 2.87 µM). The MIC [7] was 2 µg/mL (≈ 2.87 µM), the MIC [8] was 0.25 µg/mL (≈ 0.358 µM) and the MIC [9] was 1 µg/mL (≈ 1.43 µM). For the same molecule, the MIC [10] was 0.5 µg/mL (≈ 0.717 µM), the MIC [11] was 2 µg/mL (≈ 2.87 µM) and the MIC [12] was 2 µg/mL (≈ 2.87 µM). It also gave an MIC [13] of 2 µg/mL (≈ 2.87 µM), an MIC [14] of 2 µg/mL (≈ 2.87 µM) and an MIC [15] of 0.5 µg/mL (≈ 0.717 µM). For the same molecule, the MIC [16] was 2 µg/mL (≈ 2.87 µM), the MIC [17] was 2 µg/mL (≈ 2.87 µM) and the MIC [18] was 16 µg/mL (≈ 22.9 µM). For the same molecule, the MIC [19] was 2 µg/mL (≈ 2.87 µM), the MIC [20] was 0.25 µg/mL (≈ 0.358 µM) and the MIC [21] was 0.5 µg/mL (≈ 0.717 µM). For the same molecule, the MIC [22] was 0.25 µg/mL (≈ 0.358 µM), the MIC [23] was 2 µg/mL (≈ 2.87 µM) and the MIC [24] was 1 µg/mL (≈ 1.43 µM). For the same molecule, the MIC [25] was 2 µg/mL (≈ 2.87 µM), the MIC [26] was 2 µg/mL (≈ 2.87 µM) and the MIC [27] was 0.5 µg/mL (≈ 0.717 µM). For the same molecule, the MIC [28] was 2 µg/mL (≈ 2.87 µM), the MIC [29] was 0.25 µg/mL (≈ 0.358 µM) and the MIC [30] was 0.25 µg/mL (≈ 0.358 µM). It also gave an MIC [31] of 0.5 µg/mL (≈ 0.717 µM), an MIC [32] of 1 µg/mL (≈ 1.43 µM) and an MIC (Aeruginosa ATCC27853) of 0.25 µg/mL (≈ 0.358 µM). For the same molecule, the MIC [33] was 2 µg/mL (≈ 2.87 µM), the MIC [34] was 2 µg/mL (≈ 2.87 µM) and the MIC [35] was 0.25 µg/mL (≈ 0.358 µM). It also gave an MIC [36] of 2 µg/mL (≈ 2.87 µM), an MIC [37] of 4 µg/mL (≈ 5.73 µM) and an MIC [38] of 1 µg/mL (≈ 1.43 µM). For the same molecule, the MIC [39] was 0.5 µg/mL (≈ 0.717 µM) and the MIC [40] was 8 µg/mL (≈ 11.5 µM).

With CC1(C)[C@H](NC(=O)/C(=N\O[C@@H](COc2ccc3c(c2)CN(/C(=N\[C@@H]2CCCNC2)N[C@@H]2CCCNC2)C3)C(=O)O)c2csc(N)n2)C(=O)N1OS(=O)(=O)O [Compound 46] the MIC [1] was 0.25 µg/mL (≈ 0.315 µM), the MIC [2] was 0.5 µg/mL (≈ 0.631 µM) and the MIC [3] was 4 µg/mL (≈ 5.04 µM). It also gave an MIC [4] of 1 µg/mL (≈ 1.26 µM), an MIC [5] of 4 µg/mL (≈ 5.04 µM) and an MIC [6] of 4 µg/mL (≈ 5.04 µM). It also gave an MIC [7] of 4 µg/mL (≈ 5.04 µM), an MIC [8] of 0.25 µg/mL (≈ 0.315 µM) and an MIC [9] of 1 µg/mL (≈ 1.26 µM). It also gave an MIC [10] of 1 µg/mL (≈ 1.26 µM), an MIC [11] of 4 µg/mL (≈ 5.04 µM) and an MIC [12] of 4 µg/mL (≈ 5.04 µM). It also gave an MIC [13] of 4 µg/mL (≈ 5.04 µM), an MIC [14] of 4 µg/mL (≈ 5.04 µM) and an MIC [15] of 1 µg/mL (≈ 1.26 µM). For the same molecule, the MIC [16] was 4 µg/mL (≈ 5.04 µM), the MIC [17] was 4 µg/mL (≈ 5.04 µM) and the MIC [18] was over 16 µg/mL. The MIC [19] was 4 µg/mL (≈ 5.04 µM), the MIC [20] was 0.5 µg/mL (≈ 0.631 µM) and the MIC [21] was 1 µg/mL (≈ 1.26 µM). The MIC [22] was 0.25 µg/mL (≈ 0.315 µM), the MIC [23] was 4 µg/mL (≈ 5.04 µM) and the MIC [24] was 4 µg/mL (≈ 5.04 µM). For the same molecule, the MIC [25] was 4 µg/mL (≈ 5.04 µM), the MIC [26] was 4 µg/mL (≈ 5.04 µM) and the MIC [27] was 1 µg/mL (≈ 1.26 µM). For the same molecule, the MIC [28] was 4 µg/mL (≈ 5.04 µM), the MIC [29] was 0.5 µg/mL (≈ 0.631 µM) and the MIC [30] was 0.5 µg/mL (≈ 0.631 µM). The MIC [31] was 1 µg/mL (≈ 1.26 µM), the MIC [32] was 1 µg/mL (≈ 1.26 µM) and the MIC (Aeruginosa ATCC27853) was 0.5 µg/mL (≈ 0.631 µM). For the same molecule, the MIC [33] was 4 µg/mL (≈ 5.04 µM), the MIC [34] was 4 µg/mL (≈ 5.04 µM) and the MIC [35] was 0.5 µg/mL (≈ 0.631 µM). It also gave an MIC [36] of 4 µg/mL (≈ 5.04 µM), an MIC [37] of 4 µg/mL (≈ 5.04 µM) and an MIC [38] of 1 µg/mL (≈ 1.26 µM). The MIC [39] was 1 µg/mL (≈ 1.26 µM) and the MIC [40] was 4 µg/mL (≈ 5.04 µM).

C[C@H]1[C@H](NC(=O)/C(=N\OC(C)(C)C(=O)O)c2csc(N)n2)C(=O)N1S(=O)(=O)O [Aztreonam, reference compound] was tested, and the MIC [1] was 16 µg/mL (≈ 36.7 µM), the MIC [2] was 16 µg/mL (≈ 36.7 µM) and the MIC [3] was 32 µg/mL (≈ 73.5 µM). For the same molecule, the MIC [4] was 32 µg/mL (≈ 73.5 µM), the MIC [5] was 32 µg/mL (≈ 73.5 µM) and the MIC [6] was 64 µg/mL (≈ 147 µM). The MIC [7] was 64 µg/mL (≈ 147 µM), the MIC [8] was 16 µg/mL (≈ 36.7 µM) and the MIC [9] was under 0.25 µg/mL. It also gave an MIC [10] of 32 µg/mL (≈ 73.5 µM), an MIC [11] of 64 µg/mL (≈ 147 µM) and an MIC [12] of 64 µg/mL (≈ 147 µM). The MIC [13] was 64 µg/mL (≈ 147 µM), the MIC [14] was 64 µg/mL (≈ 147 µM) and the MIC [15] was 16 µg/mL (≈ 36.7 µM). For the same molecule, the MIC [16] was 64 µg/mL (≈ 147 µM), the MIC [17] was 64 µg/mL (≈ 147 µM) and the MIC [18] was 32 µg/mL (≈ 73.5 µM). It also gave an MIC [19] of 64 µg/mL (≈ 147 µM), an MIC [20] of 4 µg/mL (≈ 9.19 µM) and an MIC [21] of 32 µg/mL (≈ 73.5 µM). It also gave an MIC [22] of 8 µg/mL (≈ 18.4 µM), an MIC [23] of 32 µg/mL (≈ 73.5 µM) and an MIC [24] of 32 µg/mL (≈ 73.5 µM). The MIC [25] was 64 µg/mL (≈ 147 µM), the MIC [26] was 64 µg/mL (≈ 147 µM) and the MIC [27] was 32 µg/mL (≈ 73.5 µM). It also gave an MIC [28] of 32 µg/mL (≈ 73.5 µM), an MIC [29] of 4 µg/mL (≈ 9.19 µM) and an MIC [30] of 16 µg/mL (≈ 36.7 µM). The MIC [31] was 32 µg/mL (≈ 73.5 µM), the MIC [32] was 4 µg/mL (≈ 9.19 µM) and the MIC (Aeruginosa ATCC27853) was 2 µg/mL (≈ 4.59 µM). The MIC [33] was 64 µg/mL (≈ 147 µM), the MIC [34] was 32 µg/mL (≈ 73.5 µM) and the MIC [35] was 16 µg/mL (≈ 36.7 µM). For the same molecule, the MIC [36] was 32 µg/mL (≈ 73.5 µM), the MIC [37] was 32 µg/mL (≈ 73.5 µM) and the MIC [38] was 32 µg/mL (≈ 73.5 µM). The MIC [39] was 32 µg/mL (≈ 73.5 µM) and the MIC [40] was 32 µg/mL (≈ 73.5 µM).
